In ChEMBL document CHEMBL1201862, “PubChem BioAssay data set” (2004):
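Each compound was tested at five concentrations against cells in 96-well plates for 48 hours. Abbreviation: GI50, concentration required for 50% inhibition of growth.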 Activity calls are given as the source filed them. Rule as the data show it: active = GI50 up to about 1.1 µM and inactive = higher.

Columns and labels:
Experiment in all cases: NCI anticancer screen, dose series, 48 h
[1] = test system: HL-60
[2] = test system: UACC-62
[3] = test system: COLO 205
[4] = test system: SF-295
[5] = test system: K562
[6] = test system: DMS-273
[7] = test system: KM12
[8] = test system: SF-539
[9] = test system: HOP-92
[10] = test system: SW-620
[11] = test system: U-251
[12] = test system: 786-0
[13] = test system: HCT-15
[14] = test system: HOP-62
[15] = test system: HCT-116
[16] = test system: HCC 2998
[17] = test system: SK-MEL-5

Row | Structure (SMILES) | GI50 [1] | GI50 [2] | GI50 [3] | GI50 [4] | GI50 [5] | GI50 [6] | GI50 [7] | GI50 [8] | GI50 [9] | GI50 [10] | GI50 [11] | GI50 [12] | GI50 [13] [µM] | GI50 [14] | GI50 [15] | GI50 [16] | GI50 [17]
1 | COc1ccc(C2=Nc3ccccc3SC(C)C2)cc1 (stereo not drawn) | 46 µM (inactive) | > 100 µM (inactive) | > 100 µM (inactive) | > 100 µM (inactive) | 24.4 µM (inactive) | 78.7 µM (inactive) | 32.2 µM (inactive) | > 100 µM (inactive) | > 100 µM (inactive) | > 100 µM (inactive) | 92.7 µM (inactive) | > 100 µM (inactive) | > 100 | > 100 µM (inactive) | 18 µM (inactive) | > 100 µM (inactive) | 
2 | N#Cc1cccc(C2SCc3nc4ccccc4n32)c1 (stereo not drawn) | 62.8 µM (inactive) | 37.2 µM (inactive) | > 100 µM (inactive) | > 100 µM (inactive) | 54.6 µM (inactive) | > 100 µM (inactive) | > 100 µM (inactive) | > 100 µM (inactive) | 36.3 µM (inactive) | > 100 µM (inactive) | > 100 µM (inactive) | > 100 µM (inactive) |  | > 100 µM (inactive) |  |  | 19.8 µM (inactive)
3 | CCCCNC1CCCCC[C@H]1O (stereo partly drawn) | > 100 µM (inactive) | > 100 µM (inactive) | > 100 µM (inactive) | > 100 µM (inactive) | > 100 µM (inactive) | > 100 µM (inactive) | > 100 µM (inactive) | > 100 µM (inactive) | > 100 µM (inactive) | > 100 µM (inactive) | > 100 µM (inactive) | > 100 µM (inactive) |  | > 100 µM (inactive) | > 100 µM (inactive) | > 100 µM (inactive) | > 100 µM (inactive)
4 | CCC1C(=O)OCc2c1cc1n(c2=O)Cc2ccccc2-1 (stereo not drawn) | > 100 µM (inactive) | > 100 µM (inactive) |  | > 100 µM (inactive) | > 100 µM (inactive) | > 100 µM (inactive) | > 100 µM (inactive) | > 100 µM (inactive) | > 100 µM (inactive) | > 100 µM (inactive) |  | > 100 µM (inactive) | > 100 | > 100 µM (inactive) | > 100 µM (inactive) | > 100 µM (inactive) | > 100 µM (inactive)
5 | COc1ccc(C2C(Cl)C(=O)N2n2cnc3ccccc3c2=O)cc1 (stereo not drawn) | 59.2 µM (inactive) | > 100 µM (inactive) | 62.2 µM (inactive) | > 100 µM (inactive) | 89.7 µM (inactive) | 82.4 µM (inactive) | > 100 µM (inactive) |  |  | > 100 µM (inactive) | > 100 µM (inactive) | 46.9 µM (inactive) | > 100 | > 100 µM (inactive) | 54.6 µM (inactive) | > 100 µM (inactive) | 87.1 µM (inactive)
6 | O=[N+]([O-])c1ccc(C2N3CCCCC3[C@H]3CCCCN23)cc1 (stereo partly drawn) | > 100 µM (inactive) | > 100 µM (inactive) | > 100 µM (inactive) | > 100 µM (inactive) | > 100 µM (inactive) | > 100 µM (inactive) | > 100 µM (inactive) | > 100 µM (inactive) | > 100 µM (inactive) | > 100 µM (inactive) | > 100 µM (inactive) | > 100 µM (inactive) | > 100 | > 100 µM (inactive) | > 100 µM (inactive) |  | > 100 µM (inactive)
7 | NC(=O)NNC(=O)CCn1[nH]c(=O)c(Cl)c(Cl)c1=O | > 100 µM (inactive) | > 100 µM (inactive) | > 100 µM (inactive) | > 100 µM (inactive) | > 100 µM (inactive) | > 100 µM (inactive) |  |  | > 100 µM (inactive) | > 100 µM (inactive) | > 100 µM (inactive) | > 100 µM (inactive) | > 100 | > 100 µM (inactive) | > 100 µM (inactive) | > 100 µM (inactive) | > 100 µM (inactive)
8 | COc1ccccc1C1C(C(=O)Nc2ccccc2)=C(C)NC(C)=C1C(=O)Nc1ccccc1 |  | 40.6 µM (inactive) | 24.5 µM (inactive) | 76.4 µM (inactive) | 44.8 µM (inactive) | 34 µM (inactive) | 28.2 µM (inactive) | 36.1 µM (inactive) | 44.2 µM (inactive) | 93.8 µM (inactive) | 90.8 µM (inactive) | > 100 µM (inactive) | 54 | 83.8 µM (inactive) | 65.8 µM (inactive) | > 100 µM (inactive) | 31.8 µM (inactive)
9 | CC(C)NC(=O)OCc1nnn2c1C(OC(=O)NC(C)C)CC2 (stereo not drawn) |  | > 100 µM (inactive) | > 100 µM (inactive) | > 100 µM (inactive) | > 100 µM (inactive) | > 100 µM (inactive) | > 100 µM (inactive) | > 100 µM (inactive) | > 100 µM (inactive) | > 100 µM (inactive) | > 100 µM (inactive) | > 100 µM (inactive) | > 100 |  | > 100 µM (inactive) | > 100 µM (inactive) | > 100 µM (inactive)
